What was measured:
Type in all cases: cell-based
[1] = system: BJ-iPS28 induced pluripotent stem cells; assay: CellTiter-Glo luminescent cell viability screen, BJ-iPS28; conditions: Homo sapiens; for EC50: 24 h; for inhibition at 20 µM: pluripotent stem cells
Experimental: 5,000 CSES2 cells were plated in 50 μl per well of mTeSR1 medium into black 384-well clear-bottom plates (Falcon BD) pre-coated with Matrigel™ using WellMate cell dispenser (Matrix, Hudson, N.H.). 24 hours after plating, medium was replaced with 25 μl of fresh medium and 25 μl of 40 μM compound medium solutions in 1% DMSO from the intermediate compound dilution plates. The plates were incubated at 37° C., in a 5% CO2 atmosphere, for the entire duration of the screen, apart from the time required for liquid handling. Cell viability was determined 24 hours after compound treatment using CellTiter-Glo® luminescent cell viability assay kits. 50 μl of CellTiter-Glo® reagent was added to each well of the assay plates and fully mixed. After incubation at room temperature for 15 minutes, 25 μl of liquid was transferred from each well into a white opaque-bottom 384-well plate (PerkinElmer), and luminescence was measured using an EnVision® plate reader (PerkinElmer). 16 neutral control wells (0.5% DMSO) and 8 positive control wells (5 μM amsacrine hydrochloride were used to normalize the compound effect. All liquid transfer steps were handled with a Biomek® FXP Laboratory Automation Workstation (Beckman Coulter, Fullerton, Calif.) and Muitidrop Combi liquid dispenser (Thermo Fisher, Waltham, Mass.). An Assay Analyzer (Genedata, Basel, Switzerland) was used for data pattern correction and calculation. The Spotfire software (Spotfire, Somerville, Mass.) was used for data illustration.
696 confirmed hits from the confirmation screen were tested for profiling in a panel of 13 different cell types, using the same screening protocol described above (except in the case of embryonic stem cell-derived neural stem cells (NSCs) and mesenchymal stem cells (MSCs), for which the protocol is described below). As discussed below, compounds were tested either in dose-dependent multiple concentration manner or in single concentration manner. CSES2 and CSES2-SO2/3 cell lines and the early endodermal progenitors derived from this cell line (CSES2-SO2/3-differentiated) were screened at 8 concentrations ranging from 50 μM to 23 nM with 1:3 serial dilution steps. […] Cardiomyocytes were screened in one concentration of 20 μM. HeLa and NTERA-2 cell lines were screened in duplicates of 20 μM. Kelly and Huh-7 were screened in triplicates of 20 μM. Hepatocytes were screened in duplicates of 20 μM in the original 96-well plates in which the cells arrived (40,000 cells per well, in 160 μl medium, the volumes of all reagents involved were adjusted accordingly). MSCs and NSCs were screened in duplicates of 12.5 μM.
The raw intensity data for each well were background-corrected by subtraction of the median intensities across all positive control wells on the same plate, and used to calculate the inhibitory effect of each compound per cell line. A Genedata Assay Analyzer and Condoseo were used for data pattern correction, calculation and IC50 curve fitting. A Z′ factor was determined for each plate.
The effect of the selected compounds on human iPS cells was then determined. […]

[2] = system: CSES2-SO2/3 ES-derived endodermal progenitors; assay: CellTiter-Glo counter-screen, endodermal progenitors; conditions: Homo sapiens; for EC50: 24 hours, differentiated cells
Experimental: CSES2-SO2/3 embryonic stem cells were differentiated to endodermal progenitors using an established protocol [Duan et al. Stem Cells 28:674-686 (2010)]. Undifferentiated cells were seeded at a density of 10,000 cells/cm^2 on MatrigelT™-coated plates, with mTeSR1 medium. The next day (day 1), medium was replaced to serum-free RPMI-1640, supplemented with 2 mM glutamine, 100 ng/ml Activin A 60 μg/ml of G418 geneticin sulfate and 0.3 μg/ml of puromycin. From day 3 to day 8, the same medium was also supplemented with 1×B27 supplement (Invitrogen) and 0.5 mM sodium butyrate. The cellular identity of the cells as endodermal progenitors was verified by quantifying the percentage of green SOX17+ cells, and the percentage of CXCR4+ cells, using a Guava® EasyCyte™ Plus flow cytometry system (Millipore). Further validation was obtained by fluorescence-staining of the cells with an antibody against the early endodermal surface marker CXCR4 (CXCR4-PE antibody, 1:25; BD Biosciences). The percentage of CXCR4+ cells was also quantified using the Guava® EasyCyte™ Plus flow cytometry system.
696 confirmed hits from the confirmation screen were tested for profiling in a panel of 13 different cell types, using the same screening protocol described above (except in the case of embryonic stem cell-derived neural stem cells (NSCs) and mesenchymal stem cells (MSCs), for which the protocol is described below). As discussed below, compounds were tested either in dose-dependent multiple concentration manner or in single concentration manner. […] BJ-iPS28 cell line and the BJ fibroblasts from which it was derived were screened at 6 concentrations ranging from 50 μM to 200 nM with 1:3 serial dilution steps. Cardiomyocytes were screened in one concentration of 20 μM. HeLa and NTERA-2 cell lines were screened in duplicates of 20 μM. Kelly and Huh-7 were screened in triplicates of 20 μM. Hepatocytes were screened in duplicates of 20 μM in the original 96-well plates in which the cells arrived (40,000 cells per well, in 160 μl medium, the volumes of all reagents involved were adjusted accordingly). MSCs and NSCs were screened in duplicates of 12.5 μM.
In order to identify highly-selective cytotoxic inhibitors of hPSCs, the 696 cytotoxic inhibitors of hPSCs identified as described in Example 1 were counter-screened as described in the Materials and Methods section against other cell types, representative of all germ layers and developmental stages. Importantly, many of these cell types were differentiated from human ES or iPS cells. The screened cell types included ES-derived neural stem cells (NSCs), ES-derived mesenchymal stem cells (MSCs), ES-derived endodermal progenitor cells, ES-derived hepatocytes, iPS-derived cardiomyocytes, iPS-derived fibroblasts of origin (BJ fibroblasts), and three cancer cell lines: neuroblastoma (Kelly), cervical cancer (HeLa) and hepatocarcinoma (Huh7). The cell types and their relationship to stem cells are depicted schematically in FIG. 14.
The identified compounds were screened at 8 concentrations using both the undifferentiated red cells and the differentiated green cells, and reliable EC50 values were thereby calculated for the genetically identical differentiated and undifferentiated cells.

[3] = system: ES-derived mesenchymal stem cells; assay: CellTiter-Glo counter-screen, mesenchymal stem cells; conditions: Homo sapiens, at 20 μM (table title)

SMILES: O=C(NNc1ccccc1)c1ccncc1 [PluriSIn #1, isonicotinic acid N′-phenylhydrazide]
- EC50 [1]: 2390 nM
- inhibition at 20 µM [1]: 85.4%
- EC50 [2]: > 50 µM
- inhibition at 20 µM [2]: 6.5%
- inhibition at 12.5 µM [3]: -4.9%

SMILES: O=C(Nc1ccccc1)n1cc(F)c(=O)[nH]c1=O [PluriSIn #2]
- EC50 [1]: 6960 nM
- inhibition at 20 µM [1]: 56.8%
- EC50 [2]: > 50 µM
- inhibition at 20 µM [2]: -8.3%
- inhibition at 12.5 µM [3]: -1.4%

SMILES: Nc1cc(N)cc(COc2ccc(-c3ccccc3)cc2)c1 [PluriSIn #3]
- EC50 [1]: 1680 nM
- inhibition at 20 µM [1]: 81.1%
- EC50 [2]: > 50 µM
- inhibition at 20 µM [2]: -9.2%
- inhibition at 12.5 µM [3]: 3.3%

SMILES: O=C(NCCc1ccc(O)cc1)c1ccc(N2CCCCC2)cc1 [PluriSIn #4]
- EC50 [1]: 750 nM
- inhibition at 20 µM [1]: 74.8%
- EC50 [2]: > 50 µM
- inhibition at 20 µM [2]: -1.1%
- inhibition at 12.5 µM [3]: -8.1%

SMILES: O=S(=O)(NNc1ccccc1)c1ccc2ccccc2c1 [PluriSIn #5]
- EC50 [1]: 1520 nM
- inhibition at 20 µM [1]: 87.9%
- EC50 [2]: > 50 µM
- inhibition at 20 µM [2]: 12.9%
- inhibition at 12.5 µM [3]: 6.4%

SMILES: Cc1ccc(NNC(=O)C(O)(c2ccccc2)c2cccs2)cc1 (stereo not shown) [PluriSIn #6, 2-hydroxy-2-(thiophen-2-yl)-2-phenylacetic acid 4-methyl-N′-phenylhydrazide]
- EC50 [1]: 2260 nM
- inhibition at 20 µM [1]: 83.3%
- EC50 [2]: > 50 µM
- inhibition at 20 µM [2]: -2.5%
- inhibition at 12.5 µM [3]: -19.7%

SMILES: CC(=O)Oc1ccc(/C=C/c2ccc3c(c2)CCN3C)cc1 [PluriSIn #7]
- EC50 [1]: 2130 nM
- inhibition at 20 µM [1]: 89%
- EC50 [2]: > 50 µM
- inhibition at 20 µM [2]: 24.8%
- inhibition at 12.5 µM [3]: 35.8%

SMILES: Cc1oc2ccccc2c1/C=N/Nc1ccccc1 [PluriSIn #8]
- EC50 [1]: 1690 nM
- inhibition at 20 µM [1]: 82.2%
- EC50 [2]: > 50 µM
- inhibition at 20 µM [2]: 0%
- inhibition at 12.5 µM [3]: -33.8%

SMILES: C/C(=N\O)NNc1ccc(Cl)cc1 [PluriSIn #9]
- EC50 [1]: 3420 nM
- inhibition at 20 µM [1]: 92.3%
- EC50 [2]: > 50 µM
- inhibition at 20 µM [2]: 11.9%
- inhibition at 12.5 µM [3]: -12.6%

SMILES: CCCCCC(=O)NNc1ccc(Cl)cc1 [PluriSIn #10]
- EC50 [1]: 2420 nM
- inhibition at 20 µM [1]: 87.4%
- EC50 [2]: > 50 µM
- inhibition at 20 µM [2]: 33.8%
- inhibition at 12.5 µM [3]: 3.9%

SMILES: CCOC(=O)CN1CC(=O)/C(=C\NNc2ccccc2)C1=O [PluriSIn #11]
- EC50 [1]: 3120 nM
- inhibition at 20 µM [1]: 90.6%
- EC50 [2]: > 50 µM
- inhibition at 20 µM [2]: 4.3%
- inhibition at 12.5 µM [3]: 6%

SMILES: CCN(CC)C(=O)C(=O)c1c(-c2ccccc2)[nH]c2c1sc1ccccc12 [PluriSIn #12]
- EC50 [1]: 5400 nM
- inhibition at 20 µM [1]: 83.4%
- EC50 [2]: > 50 µM
- inhibition at 12.5 µM [3]: -7.3%

SMILES: O=C1C=CC=C1/C=C/C(=N\Nc1ccccc1)c1ccccc1 [PluriSIn #13]
- EC50 [1]: 1500 nM
- inhibition at 20 µM [1]: 94.4%
- EC50 [2]: > 50 µM
- inhibition at 20 µM [2]: 15.8%
- inhibition at 12.5 µM [3]: -7.3%

SMILES: O=C(NN(C(=O)c1ccccc1)c1ccccc1)c1ccc(Cl)cc1 [PluriSIn #14]
- EC50 [1]: 3480 nM
- inhibition at 20 µM [1]: 81.7%
- EC50 [2]: > 50 µM
- inhibition at 20 µM [2]: 18.8%
- inhibition at 12.5 µM [3]: -1.5%

SMILES: C(=N\C1CCC(CC2CCCCC2)CC1)/OC1CCOC1 (stereo not shown) [PluriSIn #15]
- EC50 [1]: 3940 nM
- EC50 [2]: > 50 µM
- inhibition at 20 µM [2]: 2.1%
- inhibition at 12.5 µM [3]: 12%

Reference: US20180153830A1, “SELECTIVE INHIBITORS OF UNDIFFERENTIATED CELLS” (Yissum Research Development Company of the Hebrew …, priority 2012, published 2018)
